Earlier results on four compounds are cited in patent US20090078254A1, “Anesthetic Agent Recovery” (priority 2004, published 2009).

Structures are written as SMILES. Like-named read-outs stand apart in the source and are kept apart here.

For data set [1], the system named is population moving in response to pain. The conditions noted are these: for MAC (Minimum Alveolar Concentration of gas that prevents 50% of population from moving in response to pain): adding 50% MAC N2O drops MAC value of agent by 50%.
The conditions of data set [2]: in vitro and in vivo studies.
Experiment in data set [3]: not given
The source holds these as a separate data set.

Experiment in data set [4]: not given
This is another data set of the same source.

The conditions of data set [5]: produces inorganic fluoride.

With `FC(F)OC(F)C(F)(F)F` (stereo not drawn) [DESFLURANE], the “Stability In Moist Soda Lime” value (40° C.) was “Stable”. The “Stability In Moist Soda Lime” value (60° C.) was “Stable”. Also, the “Stability In Moist Soda Lime” value (80° C.) is on record as “Sl. Unstable”. For the same compound, in data set [1], the “MAC (Minimum Alveolar Concentration of gas that prevents 50% of population from moving in response to pain)” value is recorded as 5-8%. For the same compound, in data set [1] (fraction of isoflurane potency), the “Potency relative to ISOFLURANE” value is listed as “about ⅕”. For the same compound, the Compound stability entry in data set [2] is “extremely stable”. In addition, in data set [3], the “SVP@18° C.” value is reported as 653 mm Hg, the “SVP@20° C.” value is 700 mm Hg, the “SVP@22° C.” value is 750 mm Hg and the “SVP@24° C.” value is 804 mm Hg. The “SVP@26° C.” value in data set [3] is reported as 860 mm Hg. Besides, the saturated vapor pressure in data set [3] (room temperature) is recorded as approximately 1.0 atm.

As to `FC(F)(F)C(Cl)Br` (stereo not drawn) [HALOTHANE], in data set [4] (byproducts of reductive metabolism), the Liver damage result is reported as “can cause liver damage”. Also, the Malignant hyperthermia result in data set [4] (in vivo) was “potential to cause malignant hyperthermia”.

For the compound `FC(F)OC(Cl)C(F)(F)F` (stereo not drawn) [ISOFLURANE], the “Stability In Moist Soda Lime” value (40° C.) is “Stable”. Further, the “Stability In Moist Soda Lime” value (60° C.) is “Stable”. Also, the “Stability In Moist Soda Lime” value (80° C.) is reported as “Stable”. Also, the “MAC (Minimum Alveolar Concentration of gas that prevents 50% of population from moving in response to pain)” value in data set [1] is 1-1.6%. Further, in data set [3], the “SVP@18° C.” value is listed as 219 mm Hg, the “SVP@20° C.” value is recorded as 240 mm Hg, the “SVP@22° C.” value is reported as 262 mm Hg and the “SVP@24° C.” value is on record as 286 mm Hg. Also, the “SVP@26° C.” value in data set [3] is 312 mm Hg.

On to `FCOC(C(F)(F)F)C(F)(F)F` [SEVOFLURANE], for which the metabolism in data set [5] is 5%. In addition, the “Stability In Moist Soda Lime” value was “Unstable” (40° C.), “Unstable” (60° C.) and “Unstable” (80° C.). The “Stability in the presence of standard CO2 absorbents” value (soda lime, baralime) is given as “unstable”. The “MAC (Minimum Alveolar Concentration of gas that prevents 50% of population from moving in response to pain)” value in data set [1] is listed as 1.5-2.5%. The “SVP@20° C.” value in data set [3] was 157 mm Hg.
